Where a name gives a salt, the structure may show the parent alone.

Consider 12 molecules from US9546164B2 (GENENTECH, INC., priority 2013, dated 2017).

Sequence of hNav1.7 (Q15858 other isoform, or with tags, fused parts or gaps): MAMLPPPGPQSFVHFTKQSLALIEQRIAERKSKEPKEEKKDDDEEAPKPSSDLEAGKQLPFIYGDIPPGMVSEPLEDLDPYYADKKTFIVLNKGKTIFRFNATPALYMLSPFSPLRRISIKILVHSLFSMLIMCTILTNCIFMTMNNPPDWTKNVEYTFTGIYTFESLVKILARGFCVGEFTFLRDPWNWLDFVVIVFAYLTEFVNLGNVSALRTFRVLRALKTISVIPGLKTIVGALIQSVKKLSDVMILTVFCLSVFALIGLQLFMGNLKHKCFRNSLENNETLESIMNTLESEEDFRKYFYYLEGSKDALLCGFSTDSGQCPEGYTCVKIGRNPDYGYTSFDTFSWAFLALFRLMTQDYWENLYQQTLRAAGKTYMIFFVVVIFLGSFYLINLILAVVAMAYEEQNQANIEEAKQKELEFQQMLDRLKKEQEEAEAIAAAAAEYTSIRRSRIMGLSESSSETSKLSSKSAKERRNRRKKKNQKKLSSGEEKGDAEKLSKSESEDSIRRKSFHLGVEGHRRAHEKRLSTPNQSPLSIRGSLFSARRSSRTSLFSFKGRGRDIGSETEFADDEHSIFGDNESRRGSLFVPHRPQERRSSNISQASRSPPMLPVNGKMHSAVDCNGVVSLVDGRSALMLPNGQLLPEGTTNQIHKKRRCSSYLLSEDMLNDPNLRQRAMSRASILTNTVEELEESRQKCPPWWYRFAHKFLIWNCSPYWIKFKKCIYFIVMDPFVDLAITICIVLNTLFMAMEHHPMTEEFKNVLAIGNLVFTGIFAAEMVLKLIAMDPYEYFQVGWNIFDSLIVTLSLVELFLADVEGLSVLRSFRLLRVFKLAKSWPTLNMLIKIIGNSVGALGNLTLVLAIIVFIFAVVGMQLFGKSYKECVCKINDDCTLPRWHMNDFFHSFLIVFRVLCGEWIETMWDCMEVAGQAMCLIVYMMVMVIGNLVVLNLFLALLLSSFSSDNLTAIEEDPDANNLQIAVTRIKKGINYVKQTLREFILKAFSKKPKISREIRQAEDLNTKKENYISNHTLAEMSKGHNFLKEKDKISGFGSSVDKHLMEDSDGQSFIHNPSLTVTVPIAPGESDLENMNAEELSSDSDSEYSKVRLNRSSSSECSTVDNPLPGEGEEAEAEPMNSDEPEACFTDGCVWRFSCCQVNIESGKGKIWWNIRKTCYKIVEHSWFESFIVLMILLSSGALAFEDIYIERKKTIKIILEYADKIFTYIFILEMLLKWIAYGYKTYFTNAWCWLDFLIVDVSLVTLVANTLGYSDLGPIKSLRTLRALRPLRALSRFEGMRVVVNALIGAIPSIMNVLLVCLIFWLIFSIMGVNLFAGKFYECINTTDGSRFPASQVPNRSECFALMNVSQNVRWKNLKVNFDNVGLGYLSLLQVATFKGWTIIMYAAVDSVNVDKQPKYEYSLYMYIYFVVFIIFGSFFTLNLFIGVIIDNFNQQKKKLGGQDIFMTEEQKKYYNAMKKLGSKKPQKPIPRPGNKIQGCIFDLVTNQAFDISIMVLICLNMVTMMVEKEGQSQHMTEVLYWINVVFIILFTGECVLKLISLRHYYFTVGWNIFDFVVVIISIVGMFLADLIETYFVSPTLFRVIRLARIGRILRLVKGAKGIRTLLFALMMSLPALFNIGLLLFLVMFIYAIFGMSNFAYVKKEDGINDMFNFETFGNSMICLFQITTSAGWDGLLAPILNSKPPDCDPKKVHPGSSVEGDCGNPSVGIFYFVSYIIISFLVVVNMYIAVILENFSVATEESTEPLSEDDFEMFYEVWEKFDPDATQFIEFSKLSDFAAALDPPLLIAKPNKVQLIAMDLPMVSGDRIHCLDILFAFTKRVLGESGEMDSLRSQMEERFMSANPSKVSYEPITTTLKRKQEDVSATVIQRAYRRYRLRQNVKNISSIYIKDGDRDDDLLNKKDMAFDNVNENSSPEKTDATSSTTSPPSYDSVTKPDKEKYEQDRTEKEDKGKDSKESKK
Sequence of hNav1.7 (Q07699 19-218 partner): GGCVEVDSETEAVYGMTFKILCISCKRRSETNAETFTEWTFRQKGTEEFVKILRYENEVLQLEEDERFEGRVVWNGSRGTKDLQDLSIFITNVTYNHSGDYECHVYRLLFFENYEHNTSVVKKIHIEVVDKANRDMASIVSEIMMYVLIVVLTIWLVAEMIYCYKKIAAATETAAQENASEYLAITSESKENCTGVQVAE

The first experiment concerns the target hNav1.7 (Homo sapiens (Human), UniProt Q15858). As to the kind of experiment: Tritiated sulfonamide competitive binding to membranes from cells expressing hNav1.7 and the β1 subunit.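 Further: Filter-bound radioactivity counted by liquid scintillation, nonspecific binding defined with excess unlabelled ligand, IC50 fitted to percent inhibition of specific binding.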
Conditions: not given
`O=C(NS(=O)(=O)N1CCC1)c1cc(C2CC2)c(O[C@@H]2CCCN(CC3CCCCC3)C2)cc1F` [Example 11, (R)—N-(azetidin-1-ylsulfonyl)-4-((1-(cyclohexylmethyl)piperidin-3-yl)oxy)-5-cyclopropyl-2-fluorobenzamide] gave an IC50 of 0.0474 µM.

The same experiment, now with this note: read-out: Ligand Binding Assay; 100 pM [3H]compound, membranes with hNav1.7 and β1 subunit, 18 h, room temperature.
Consider `CS(=O)(=O)NC(=O)c1cc(C2CC2)c(OCC2CCN(S(=O)(=O)c3ccc4ccccc4c3)CC2)cc1F` [Example 388, 5-cyclopropyl-2-fluoro-N-(methylsulfonyl)-4-((1-(naphthalen-2-ylsulfonyl)piperidin-4-yl)methoxy)benzamide], for which the IC50 worked out at 0.0163 µM.

In the case of `C[C@H](c1cc(Cl)cc(Cl)c1)N1CCC(COc2cc(F)c(C(=O)NS(C)(=O)=O)cc2Cl)CC1` [Example 404, (R)-5-chloro-4-((1-(1-(3,5-dichlorophenyl)ethyl)piperidin-4-yl)methoxy)-2-fluoro-N-(methylsulfonyl)benzamide, trifluoroacetic acid], the IC50 was 0.0201 µM.

In the case of `CS(=O)(=O)NC(=O)c1cc(C2CC2)c(OCC2CCN(c3cccc(Cl)c3)CC2)cc1F` [Example 294, 4-((1-(3-Chlorophenyl)piperidin-4-yl)methoxy)-5-cyclopropyl-2-fluoro-N-(methylsulfonyl)benzamide], the IC50 stood at 0.0038 µM.

`CS(=O)(=O)NC(=O)c1cc(C2CC2)c(OCC2CN(C(c3ccccc3)c3ccc(C(F)(F)F)cc3)C2)cc1F` (stereo not drawn) [Example 131, 5-Cyclopropyl-2-fluoro-N-(methylsulfonyl)-4-((1-(phenyl(4-(trifluoromethyl)phenyl)methyl)-azetidin-3-yl)methoxy)benzamide]: the IC50 was found to be 0.00299 µM.

With `CS(=O)(=O)NC(=O)c1cc(C2CC2)c(OCC2CCN(C(=O)c3ccc(Cl)c(Cl)c3)CC2)cc1F` [Example 232, 5-Cyclopropyl-4-((1-(3,4-dichlorobenzoyl)piperidin-4-yl)methoxy)-2-fluoro-N-(methylsulfonyl)benzamide], the IC50 was 0.064 µM.

`CC(C)Oc1ncc(CN2CCC(COc3cc(F)c(C(=O)NS(C)(=O)=O)cc3C3CC3)CC2)cc1Cl` [Example 128, 4-((1-((5-Chloro-6-isopropoxypyridin-3-yl)methyl)piperidin-4-yl)methoxy)-5-cyclopropyl-2-fluoro-N-(methylsulfonyl)benzamide]: the IC50 came to 0.0056 µM.

For `CS(=O)(=O)NC(=O)c1cc(C2CC2)c(OCC2CCN(Cc3ncccc3C(F)(F)F)CC2)cc1F` [Example 365, 5-cyclopropyl-2-fluoro-N-(methylsulfonyl)-4-((1-((3-(trifluoromethyl)pyridin-2-yl)methyl)piperidin-4-yl)methoxy)benzamide, trifluoroacetic acid salt], the IC50 is 0.327 µM.

Consider `C[C@H](c1ccc(F)cc1Cl)N1CCC(COc2cc(F)c(C(=O)NS(C)(=O)=O)cc2C2CC2)CC1` [Example 244], for which the IC50 is 0.012 µM.

On to `CC1(COc2cc(F)c(C(=O)NS(=O)(=O)C3CC3)cc2C2CC2)CN(c2cc(Cl)ncc2C(F)(F)F)C1` [Example 487, 4-((1-(2-chloro-5-(trifluoromethyl)pyridin-4-yl)-3-methylazetidin-3-yl)methoxy)-5-cyclopropyl-N-(cyclopropylsulfonyl)-2-fluorobenzamide, trifluoroacetic acid salt], for which the IC50 was found to be 0.0135 µM.

Turning to `CS(=O)(=O)NC(=O)c1cc(C2CC2)c(OCC2CCN(Cc3ccc(C(F)(F)F)c(Cl)c3)CC2)cc1F` [Example 220, 4-((1-(3-Chloro-4-(trifluoromethyl)benzyl)piperidin-4-yl)methoxy)-5-cyclopropyl-2-fluoro-N-(methylsulfonyl)benzamide], the IC50 is 0.017 µM.

Turning to `O=C(NS(=O)(=O)C1CC1)c1cc(C2CC2)c(CN2[C@@H]3CC[C@H]2C[C@@H](Oc2cc(C(F)(F)F)c(Cl)cn2)C3)cc1F` [Example 551, 4-(((1R,3r,5S)-3-((5-chloro-4-(trifluoromethyl)pyridin-2-yl)oxy)-8-azabicyclo[3.2.1]octan-8-yl)methyl)-5-cyclopropyl-N-(cyclopropylsulfonyl)-2-fluorobenzamide, trifluoroacetic acid salt], the IC50 is 0.0075 µM.
